From US20040192641A1, “Special preparation of anticancer drugs made by novel nanotechnology” (priority 2003, published 2004)

How the values were obtained:
[1] = test system: S180, ECS, HCS, ARS, U-14 and L615 transplanted tumor; test: Growth of transplanted tumors; type: in vivo, mice; conditions: 20 mg/kg
Experimental: (§1) Male mice, weight 20-22 g, were used in the experiment. 1×10^7 tumor cells were injected to mouse and PK-HHT-NP injected intraperitoneally began second day. All mice were sacrificed on the 12th days, isolated the tumor and weighed and calculated the inhibition rate of tumor weight.
(§2) Male mice, weight 20-22 g, were used in the experiment. 1×10^7 tumor cells were injected to mouse and CUR and PK-CUR-NP injected intraperitoneally began second day. All mice were sacrificed on the 12th days, isolated the tumor and weighed and calculated the inhibition rate of tumor weight.
(§3) Male mice, weight 20-22 g, were used in the experiment. 1×10^7 tumor cells were injected to mouse and ELE injected intraperitoneally began second day. All mice were sacrificed on the 12th days, isolated the tumor and weighed and calculated the inhibition rate of tumor weight.
(§4) Male mice, weight 20-22 g, were used in the experiment. 1×10^7 tumor cells were injected to mouse and CPT injected intraperitoneally began second day. All mice were sacrificed on the 12th days, isolated the tumor and weighed and calculated the inhibition rate of tumor weight.

Subacute toxicity test = type: in vivo; conditions: 50 times the clinical dose, continually for two months
Walker 256 = test: Growth of transplanted tumor, Walker 256 (tumor weight); type: in vivo, mice; conditions: 20 mg/kg i.p. from second day, tumor weight on 12th day
Experimental: as §1, §2, §3, §4

[2] = test system: NNK-induced lung tumorigenesis (pulmonary adenomas); test: NNK-induced lung tumorigenesis; type: in vivo, mice; conditions: 20 mg/kg daily by injection; 10 μmol NNK i.p.; sixteen weeks
Experimental: The capacity of tobacco-specific nitrosamine 4-(methylnitrosamino)-1-(3-pyridyl)-1-butanone (NNK) to induce tumor incidence was recognized.
(§5) Every group had 20 mice. For treatment group, each mouse was gave free CUR and PK-CUR-NP by injection at dose of 20 mg/kg daily. For control group, each mouse was gave same volume of physiological saline. Three days later, mice were gave 10 μmol NNK (in 0.1 ml saline) by i.p. injection. Sixteen weeks after these treatments the mice were killed and pulmonary adenomas were counted. The statistical significance of bioassay data was determined by student's test.
as §5, with “ELE” for “free CUR”, “PK-ELE-NP” for “PK-CUR-NP”
as §5, with “CPT” for “CUR”, “PK-CPT-NP” for “PK-CUR-NP”

Hela = test: Inhibition of tumor cell proliferation, Hela; type: cell-based, human; conditions: 72 hours
Experimental: (§6) Human tumor cell lines: Hela leukemia HL-60, malignant melanocarcinoma B16, oral epidermoid carcinoma (KB), lung carcinoma (A549), breast carcinoma MCF-7, adenocarcinoma of stomach.
(§7) Animal tumor cell lines: Walker carcinoma, LLC-WRC-256, malignant melanoma (RMMI 1846), 3T3, and S-180 sarcoma (CCRF-180). All lines were routinely cultured in the RPMI1640 medium supplemented 20% fetal calf serum. The experiment was carried out in 96 microplate, each well had 5×10^5 cells and given desired concentration of 1 μg/ml (1×10^−6 g/ml) drug. Then the plate was incubated at 37° C. in an atmosphere of humidified air enriched with 5 percent carbon dioxide for 72 hours.
(§8) Inhibition percent rate of tumor cell proliferation was obtained according to the bellow formula. [formula]
as §7, with “hours. Concentration of CUR or PK-CUR-NP is 50ng/ml.” for “hours.”
as §7, with “hours. Concentration of ELE or PK-ELE-NP is 50 ng/ml.” for “hours.”
as §7, with “hours. Concentration of CPT or PK-CPT-NP is 50 ng/ml.” for “hours.”

HL-60 = test: Inhibition of tumor cell proliferation, HL-60; type: cell-based, human; conditions: for Inhibition (%): 72 hours
Experimental: Human leukemia cells (HL-60) were grown in RPMI Medium 1640 supplemented with 10% (v/v) heat-inactivated FBS (56° C. for 30 min) at 37° C. in a humidified 95% air/5% CO2 atmosphere. Cells were seeded at a level of 2×10^5 cells/ml. Cells were allowed to attain a maximum density of 1.2×10^6 cells/ml before being passed by dilution into fresh medium to a concentration of 2×10^5 cells/ml.
Cell lines were routinely cultured in the RPMI1640 medium supplemented 20% fetal calf serum. The experiment was carried out in 96 microplate, each well had 5×10^5 cells and given desired concentration of drug (1 μg/ml). Then the plate was incubated at 37° C. in an atmosphere of humidified air enriched with 5 percent carbon dioxide for 72 hours. Inhibition percent rate of tumor cell proliferation was obtained according to the bellow formula. [formula]
as §6, §7
Inhibition percent rate of tumor cell proliferation was obtained according to the bellow formula. [formula] […]

S180 = test: Growth of transplanted tumor, S180 (tumor weight); type: in vivo, mice; conditions: 20 mg/kg i.p. from second day, tumor weight on 12th day
Experimental: as §1, §2, §3, §4

[3] = test system: oral epidermoid carcinoma (KB); test: Inhibition of tumor cell proliferation, KB; type: cell-based, human; conditions: 72 hours; for Inhibition (%): 50 ng/ml
Experimental: as §6, §7, §8
as §7, with “hours. Concentration of CUR or PK-CUR-NP is 50ng/ml.” for “hours.”
as §7, with “hours. Concentration of ELE or PK-ELE-NP is 50 ng/ml.” for “hours.”
Animal tumor cell lines: Walker carcinoma, LLC-WRC-256, malignant melanoma (RMMI 1846), 3T3, and S-180 sarcoma (CCRF-180). All lines were routinely cultured in the RPMI1640 medium supplemented 20% fetal calf serum. […]

| Molecule | growth of transplanted tumor [1] | subacute toxicity: side effects (Subacute toxicity test) | Inhibition (%) of transplanted tumor (Walker 256) [%] | Tumor incidence (%) [2] [%] | inhibition at 0.05 µg/mL (Hela; Homo sapiens, HeLa, 50 ng/ml) [%] | inhibition at 0.05 µg/mL (HL-60; Homo sapiens, HL-60, 72 h, 50 ng/ml) [%] | Inhibition (%) of transplanted tumor (S180) [%] | Inhibition (%) (Hela; 50 ng/ml) | Inhibition (%) (HL-60; 50 ng/ml) | Inhibition (%) [3] [%] | inhibition at 1 µg/mL (Hela; Homo sapiens, HeLa, 1 μg/ml) [%] | inhibition at 1 µg/mL (HL-60; Homo sapiens, HL-60, 72 h, 1 μg/ml) [%] | inhibition at 1 µg/mL (HL-60; Homo sapiens, HL-60, 72 h, Example 23, 1 μg/ml, NP dose equivalent of free HHT) [%] | inhibition at 1 µg/mL ([3]; Homo sapiens, 1 μg/ml) [%] |
| --- | --- | --- | --- | --- | --- | --- | --- | --- | --- | --- | --- | --- | --- | --- |
| CC[C@@]1(O)C(=O)OCc2c1cc1n(c2=O)Cc2cc3ccccc3nc2-1 [CPT, Camptothecin] | could inhibit the growth | no side effects had been observed | 71.8 ± 10.4 | 36.2 ± 6.2 | 60.8 ± 12.2 | 70.8 ± 11.2 | 63.2 ± 12.1 |  |  |  |  |  |  |  |
| C=C1C[C@@]2(O)O[C@@]3(C[C@H]2C(C)C)[C@@H](C)CC[C@@H]13 [CUR, Curcumol] | could inhibit the growth | no side effects had been observed | 59.8 ± 8.5 | 35.8 ± 5.8 |  |  | 63.7 ± 7.3 | 67.2 ± 10.4 | 76.8 ± 12.8 | 60.8 ± 9.1 |  |  |  |  |
| COC(=O)C[C@](O)(CCCC(C)(C)O)C(=O)O[C@@H]1C(OC)=C[C@]23CCCN2CCc2cc4c(cc2[C@H]13)OCO4 [HHT, Homoharringtonine] |  |  | 83 ± 9 |  |  |  | 76 ± 8 |  |  |  | 75.6 ± 8 | 70.8 ± 9 | 70.5 ± 8 | 80 ± 8.5 |
| Eelemene | could inhibit the growth | no side effects had been observed | 60.8 ± 8.9 | 34.8 ± 6.2 |  |  | 67.57 ± 9.1 | 69.8 ± 11.2 | 78.9 ± 12.5 | 60.2 ± 13.2 |  |  |  |  |
